Patent publication US12162864B2, “Condensed-cyclic compound” (Takeda Pharmaceutical Company Limited, priority 2018, dated 2024)
pEC50: −log10 of the molar value.

Target: T1, human M1 receptor (Homo sapiens, UniProt P11229)
T1 construct: expressed in transfected cells; host or cells: CHO-K1
T1 sequence (P11229 1-460): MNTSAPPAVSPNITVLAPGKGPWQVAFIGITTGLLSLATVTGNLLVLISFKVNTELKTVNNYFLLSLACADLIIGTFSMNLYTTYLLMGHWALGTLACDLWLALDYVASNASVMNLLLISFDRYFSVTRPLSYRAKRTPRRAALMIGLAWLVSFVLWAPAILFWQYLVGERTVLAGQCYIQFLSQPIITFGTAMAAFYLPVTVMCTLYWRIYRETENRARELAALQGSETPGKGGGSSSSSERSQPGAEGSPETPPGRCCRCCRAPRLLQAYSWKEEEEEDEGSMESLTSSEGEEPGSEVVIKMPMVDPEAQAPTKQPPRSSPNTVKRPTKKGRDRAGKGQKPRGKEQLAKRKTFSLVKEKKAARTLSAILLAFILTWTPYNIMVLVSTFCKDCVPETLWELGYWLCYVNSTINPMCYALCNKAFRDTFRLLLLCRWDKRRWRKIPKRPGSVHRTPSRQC
Assay: Measurement of M1 receptor positive allosteric modulator (M1PAM) activity
Type: cell-based
Details: PAM activity in presence of acetylcholine at EC20 concentration; CHO-K1 cells stably expressing human M1 receptor; IP1 time-resolved fluorescence
Experimental: Measurement of M1 Receptor Positive Allosteric Modulator (M1PAM) Activity
The activity of a test compound in the presence of acetylcholine at an EC20 concentration affording about 20% action of the maximum activity was measured as PAM activity. The method therefor is as follows. To a 384-well white plate (Greiner™) was added 4 μL of the test compound diluted with IP1 Stimulation buffer (CisBio™) containing 0.1% fatty acid-free BSA containing 80 nM acetylcholine. Freeze stock of CHO-K1 cells stably expressing human M1 receptor (hCHRMl) was prepared with IP1 Stimulation buffer (CisBio™) containing 0.1% fatty acid-free BSA, 4 μL thereof was added (10,000 cells/well) and the mixture was cultured in a 5% CO2 incubator at 37° C. for 1 hr. 4 μL of a solution (CisBio™) containing IP1-d2 and Anti-IP1-cryptate Tb conjugate was added the mixture was incubated at room temperature for 1 hr, and the time-resolved fluorescence signal was measured on an Envision plate reader (Perkin Elmer™). The activity (%) of the test compound was calculated by defining the value when acetylcholine was added at the final concentration of 20 μM as 100% and the value when DMSO was added instead of the test compound under acetylcholine-free conditions as 0%, and the EC50 value was calculated as a value of 50% of the concentration dependence curve of the test compound.

SMILES	pEC50
Cn1cc(-c2ccc(Cc3cc(C(=O)N[C@H]4CCOC[C@@H]4O)c(F)c4c3OCC4)cc2)cn1 [Example 2, 1,5-anhydro-2,3-dideoxy-3-(((4-fluoro-7-(4-(1-methyl-1H-pyrazol-4-yl)benzyl)-2,3-dihydro-1-benzofuran-5-yl)carbonyl)amino)-L-threo-pentitol]	8.31
O=C(N[C@H]1CCCC[C@@H]1O)c1cc(Cc2ccc(-n3cccn3)cc2)c2c(c1F)CCO2 [Example 10, 4-fluoro-N-((1S,2S)-2-hydroxycyclohexyl)-7-(4-(1H-pyrazol-1-yl)benzyl)-2,3-dihydro-1-benzofuran-5-carboxamide]	7.77
COc1c(C(=O)N[C@H]2CCOC[C@@H]2O)cc(Cc2ccc(C(=O)NC[C@@H]3CCCO3)c(F)c2)c2c1CCO2 [Example 33, 1,5-anhydro-2,3-dideoxy-3-(((7-(3-fluoro-4-(((2S)-tetrahydrofuran-2-ylmethyl)carbamoyl)benzyl)-4-methoxy-2,3-dihydro-1-benzofuran-5-yl)carbonyl)amino)-L-threo-pentitol]	7.96
COCCNC(=O)c1ccc(Cc2cc(C(=O)N[C@H]3CCOC[C@@H]3O)c(OC)c3c2CCC3)cc1F [Example 58, 1,5-anhydro-2,3-dideoxy-3-(((7-(3-fluoro-4-((2-methoxyethyl)carbamoyl)benzyl)-4-methoxy-2,3-dihydro-1H-inden-5-yl)carbonyl)amino)-L-threo-pentitol]	8.03
O=C(NC[C@@H]1CCCO1)c1ccc(Cc2cc(C(=O)N[C@H]3CCOC[C@@H]3O)c(F)c3c2OCC3)cc1F [Example 15, 1,5-anhydro-2,3-dideoxy-3-(((4-fluoro-7-(3-fluoro-4-(((2S)-tetrahydrofuran-2-ylmethyl)carbamoyl)benzyl)-2,3-dihydro-1-benzofuran-5-yl)carbonyl)amino)-L-threo-pentitol]	8.31
COc1c(C(=O)N[C@H]2CCOC[C@@H]2O)cc(Cc2ccc(C(=O)NC[C@@H]3CCCO3)c(F)c2)c2c1CCC2 [Example 59, 1,5-anhydro-2,3-dideoxy-3-(((7-(3-fluoro-4-(((2S)-tetrahydrofuran-2-ylmethyl)carbamoyl)benzyl)-4-methoxy-2,3-dihydro-1H-inden-5-yl)carbonyl)amino)-L-threo-pentitol]	8.41
Cn1cc(-c2ccc(Cc3cc(C(=O)N[C@H]4CCOC[C@@H]4O)c(F)c4c3OCC4)cc2)nn1 [Example 1, 1,5-anhydro-2,3-dideoxy-3-(((4-fluoro-7-(4-(1-methyl-1H-1,2,3-triazol-4-yl)benzyl)-2,3-dihydro-1-benzofuran-5-yl)carbonyl)amino)-L-threo-pentitol]	8.51
COc1c(C(=O)N[C@H]2CCOC[C@@H]2O)cc(Cc2ccc(-c3cn(C)nn3)cc2)c2c1CCO2 [Example 18, 1,5-anhydro-2,3-dideoxy-3-(((4-methoxy-7-(4-(1-methyl-1H-1,2,3-triazol-4-yl)benzyl)-2,3-dihydro-1-benzofuran-5-yl)carbonyl)amino)-L-threo-pentitol]	8.22
COc1c(C(=O)N[C@H]2CCOC[C@@H]2O)cc(Cc2ccc(C(=O)NC[C@H]3CCCO3)c(F)c2)c2c1CCO2 [Example 43, 1,5-anhydro-2,3-dideoxy-3-(((7-(3-fluoro-4-(((2R)-tetrahydrofuran-2-ylmethyl)carbamoyl)benzyl)-4-methoxy-2,3-dihydro-1-benzofuran-5-yl)carbonyl)amino)-L-threo-pentitol]	7.02
COCCNC(=O)c1ccc(Cc2cc(C(=O)N[C@H]3CCOC[C@@H]3O)c(OC)c3c2OCC3)cc1F [Example 32, 1,5-anhydro-2,3-dideoxy-3-(((7-(3-fluoro-4-((2-methoxyethyl)carbamoyl)benzyl)-4-methoxy-2,3-dihydro-1-benzofuran-5-yl)carbonyl)amino)-L-threo-pentitol]	7.62
O=C(N[C@H]1COCC[C@@H]1O)c1cc(Cc2ccc(-n3cccn3)cc2)c2c(c1F)CCO2 [Example 11, 1,5-anhydro-2,4-dideoxy-2-(((4-fluoro-7-(4-(1H-pyrazol-1-yl)benzyl)-2,3-dihydro-1-benzofuran-5-yl)carbonyl)amino)-L-threo-pentitol]	7.02
COc1c(C(=O)N[C@H]2CCOC[C@@H]2O)cc(Cc2ccc(-c3cn(C)nn3)cc2)c2c1CCC2 [Example 53, 1,5-anhydro-2,3-dideoxy-3-(((4-methoxy-7-(4-(1-methyl-1H-1,2,3-triazol-4-yl)benzyl)-2,3-dihydro-1H-inden-5-yl)carbonyl)amino)-L-threo-pentitol]	8.49
COc1c(C(=O)N[C@H]2CCOC[C@@H]2O)cc(Cc2ccc(-c3cnn(C)c3)nc2)c2c1CCC2 [Example 55, 1,5-anhydro-2,3-dideoxy-3-(((4-methoxy-7-((6-(1-methyl-1H-pyrazol-4-yl)pyridin-3-yl)methyl)-2,3-dihydro-1H-inden-5-yl)carbonyl)amino)-L-threo-pentitol]	8.26
O=C(N[C@H]1CCOC[C@@H]1O)c1cc(Cc2ccc(-n3cccn3)cc2)c2c(c1F)CCO2 [Example 9, 1,5-anhydro-2,3-dideoxy-3-(((4-fluoro-7-(4-(1H-pyrazol-1-yl)benzyl)-2,3-dihydro-1-benzofuran-5-yl)carbonyl)amino)-L-threo-pentitol]	8.12
CNC(=O)c1ccc(Cc2cc(C(=O)N[C@H]3CCOC[C@@H]3O)c(F)c3c2OCC3)cc1F [Example 12, 1,5-anhydro-2,3-dideoxy-3-(((4-fluoro-7-(3-fluoro-4-(methylcarbamoyl)benzyl)-2,3-dihydro-1-benzofuran-5-yl)carbonyl)amino)-L-threo-pentitol]	7.96
COc1c(C(=O)N[C@H]2CCOC[C@@H]2O)cc(Cc2ccc(C(=O)NC[C@H]3CCCO3)c(F)c2)c2c1CCC2 [Example 70, 1,5-anhydro-2,3-dideoxy-3-(((7-(3-fluoro-4-(((2R)-tetrahydrofuran-2-ylmethyl)carbamoyl)benzyl)-4-methoxy-2,3-dihydro-1H-inden-5-yl)carbonyl)amino)-L-threo-pentitol]	7.49
COc1c(C(=O)N[C@H]2CCOC[C@@H]2O)cc(Cc2ccc(C(=O)NCCCS(C)(=O)=O)c(F)c2)c2c1CCC2 [Example 66, 1,5-anhydro-2,3-dideoxy-3-(((7-(3-fluoro-4-((3-(methylsulfonyl)propyl)carbamoyl)benzyl)-4-methoxy-2,3-dihydro-1H-inden-5-yl)carbonyl)amino)-L-threo-pentitol]	7.92
Cn1cc(-c2ccc(Cc3cc(C(=O)N[C@H]4CCOC[C@@H]4O)c(O)c4c3OCC4)cc2)nn1 [Example 20, 1,5-anhydro-2,3-dideoxy-3-(((4-hydroxy-7-(4-(1-methyl-1H-1,2,3-triazol-4-yl)benzyl)-2,3-dihydro-1-benzofuran-5-yl)carbonyl)amino)-L-threo-pentitol]	7.37
CNC(=O)c1ccc(Cc2cc(C(=O)N[C@H]3CCOC[C@@H]3O)c(OC)c3c2CCC3)cc1F [Example 57, 1,5-anhydro-2,3-dideoxy-3-(((7-(3-fluoro-4-(methylcarbamoyl)benzyl)-4-methoxy-2,3-dihydro-1H-inden-5-yl)carbonyl)amino)-L-threo-pentitol]	8.05
